The nature of the data set: recombinant barcode read abundance after kanamycin selection (control-corrected) (log10(CPM+1)); higher = more efficient recombination; sequences stand for … in AGTGCAGAGAAAATCGGCCAGTTTTCTCTGCCTGCAGTCCGCATGCCGT…AGATTTATGCAGCGGACTGCCTTTCTCCCAAAGTGATAAACCGGACAGTATCATGGACCGGTTTTCCCGGTAATCCGTATTTGCAAGGTTGGTTTCACT; site = the 11-nt target. In a few lines:
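Pooled E. coli screen pairing targets with IS621 bridge RNA target-binding loops. Each oligo (promoter, target, barcode, J23119-driven first 104 bridge RNA bases) was Gibson-cloned into a vector with the remaining 73 bp and T7-inducible recombinase, then co-electroporated with a donor plasmid. Two replicates each were plated on chloramphenicol/ampicillin LB agar (control) or chloramphenicol/ampicillin/kanamycin with 0.1 mM IPTG. Recombination efficiency is recombinant-junction barcode counts as CPM, averaged, control-corrected, reported as log10(CPM+1).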
Take “GGGGAGTCTTGGGTTCTAACCTGTTGCTT (site GGGGAGCCTCA)”: the “recombinant barcode read abundance (log10)” value was determined as 0.16. For “GGGGAGTCTTGGGTTCTAACCTGTTGCTT (site GGGGAGTCTAA)” the value was 2.26; for “GGGGCAACTTGGGTTCTAACCTGTTGCTA (site CGGGCTACTTA)”, 0.0424.

Turning to “GGGGCAACTTGGGTTCTAACCTGTTGCTA (site GGGGCAACTTA)”, the “recombinant barcode read abundance (log10)” value is 0.388.

With “GGGGCACCTTGGGTTCTAACCTGTTGCCT (site GGGGCACCTAA)”, the “recombinant barcode read abundance (log10)” value was determined as 0.216. On to “GGGGCACCTTGGGTTCTAACCTGTTGCCT (site GGGGCACCTAC)”, for which the “recombinant barcode read abundance (log10)” value is 0.0542. In the case of “GGGGCACCTTGGGTTCTAACCTGTTGCCT (site GGGGCACCTAG)” it was 1.15. Consider “GGGGCACCTTGGGTTCTAACCTGTTGCCT (site GGGGCACCTAT)”, for which the “recombinant barcode read abundance (log10)” value stood at 0.556. For the sequence “GGGGCACCTTGGGTTCTAACCTGTTGCTT (site GGGGCACCTAA)”, the “recombinant barcode read abundance (log10)” value turned out to be 2.29. For “GGGGCACCTTGGGTTCTAACCTGTTGCTT (site GGGGCACCTAC)” the value was 0.68; for “GGGGCACCTTGGGTTCTAACCTGTTGCTT (site GGGGCACCTAG)”, 1.48; for “GGGGCACCTTGGGTTCTAACCTGTTGCTT (site GGGGCACCTAT)”, 2.06.

“GGGGCGTCTTGGGTTCTAACCTGTTGCTT (site GGGGCATCTAA)”: the “recombinant barcode read abundance (log10)” value is 1.54. In the case of “GGGGCGTCTTGGGTTCTAACCTGTTGCTT (site GGGGCCTCTAA)” it was 0.0129. For “GGGGCGTCTTGGGTTCTAACCTGTTGCTT (site GGGGCGTCTAA)” the value was 2.16; for “GGGGCGTCTTGGGTTCTAACCTGTTGCTT (site GGGGCTTCTAA)”, 0.0767. For “GGGGCTACTTGGGTTCTAACCTGTTGCCT (site GGGGCTACTAG)”, the “recombinant barcode read abundance (log10)” value stood at 0.396. In the case of “GGGGCTACTTGGGTTCTAACCTGTTGCCT (site GGGGCTACTGT)” it was 0.183. In the case of “GGGGTCCCTTGGGTTCTAACCTGTTGCTT (site CTCAAAGCTTC)” it was 0.0621; in that of “GGGGTCCCTTGGGTTCTAACCTGTTGCTT (site GGGGTCCCTAA)”, 2.79. In the case of “GGGTCCACTTGGGTTCTAACCTGTTGCAT (site GGGTCCACTAA)” it was 0.481; in that of “GGGTCCACTTGGGTTCTAACCTGTTGCAT (site GGGTCCACTAC)”, 0.13.

In the case of “GGGTCCACTTGGGTTCTAACCTGTTGCAT (site GGGTCCACTAG)”, the “recombinant barcode read abundance (log10)” value came out at 0.699. In the case of “GGGTCCACTTGGGTTCTAACCTGTTGCAT (site GGGTCCACTAT)” it was 2.17; in that of “GGGTCCACTTGGGTTCTAACCTGTTGCGT (site GGGTCCACTAA)”, 0.239.

Regarding “GGGTCCACTTGGGTTCTAACCTGTTGCGT (site GGGTCCACTAC)”, the “recombinant barcode read abundance (log10)” value was 2.82. In the case of “GGGTCCACTTGGGTTCTAACCTGTTGCGT (site GGGTCCACTAG)” it was 1.5; in that of “GGGTCCACTTGGGTTCTAACCTGTTGCGT (site GGGTCCACTAT)”, 1.45; in that of “GGGTCCTCTTGGGTTCTAACCTGTTGCCC (site GGGTCCTCTAG)”, 1.36. As for “GGGTCCTCTTGGGTTCTAACCTGTTGCCC (site GGGTCCTCTCG)”, the “recombinant barcode read abundance (log10)” value was determined as 0.0863. For “GGGTCCTCTTGGGTTCTAACCTGTTGCCC (site GGGTCCTCTGG)” the value was 1.23. In the case of “GGGTCCTCTTGGGTTCTAACCTGTTGCCC (site GGGTCCTCTTG)” it was 0.0208; in that of “GGGTCCTCTTGGGTTCTAACCTGTTGCCG (site GGGTCCTCTAG)”, 1.32; in that of “GGGTCCTCTTGGGTTCTAACCTGTTGCCG (site GGGTCCTCTCG)”, 2.01. For “GGGTCCTCTTGGGTTCTAACCTGTTGCCG (site GGGTCCTCTGG)” the value was 0.422; for “GGGTCCTCTTGGGTTCTAACCTGTTGCCG (site GGGTCCTCTTG)”, 0.205. Consider “GGGTTCACTTGGGTTCTAACCTGTTGCCG (site GAGTTCACTAG)”, for which the “recombinant barcode read abundance (log10)” value worked out at 0.0415. For “GGGTTCACTTGGGTTCTAACCTGTTGCCG (site GGGTTCACTCG)” the value was 1.43. For “GGGTTGCCTTGGGTTCTAACCTGTTGCCT (site GAGTTGCCTAG)”, the “recombinant barcode read abundance (log10)” value was determined as 0.945. In the case of “GGGTTGCCTTGGGTTCTAACCTGTTGCCT (site GCGTTGCCTAG)” it was 1.1; in that of “GGGTTGCCTTGGGTTCTAACCTGTTGCCT (site GGGTTGCCTAG)”, 1.46. In the case of “GGGTTGCCTTGGGTTCTAACCTGTTGCCT (site GTGTTGCCTAG)”, the “recombinant barcode read abundance (log10)” value is 0.144. In the case of “GGTAAGACTTGGGTTCTAACCTGTTGCCT (site GGAAAGACTAG)” it was 0.31; in that of “GGTAAGACTTGGGTTCTAACCTGTTGCCT (site GGCAAGACTAG)”, 0.318. In the case of “GGTAAGACTTGGGTTCTAACCTGTTGCCT (site GGGAAGACTAG)” it was 0.197; in that of “GGTAAGACTTGGGTTCTAACCTGTTGCCT (site GGTAAGACTAG)”, 1.47. For “GGTATGTCTTGGGTTCTAACCTGTTGCTG (site CGAATGTCTCA)” the value was 0.119; for “GGTATGTCTTGGGTTCTAACCTGTTGCTG (site GGTATGTCTCA)”, 0.857; for “GGTATGTCTTGGGTTCTAACCTGTTGCTT (site GCTATGTCTAG)”, 0.0865. For the sequence “GGTATGTCTTGGGTTCTAACCTGTTGCTT (site GGTATGTCTAA)”, the “recombinant barcode read abundance (log10)” value is 0.641.

With “GGTCAACCTTGGGTTCTAACCTGTTGCCT (site GATCAACCTAG)”, the “recombinant barcode read abundance (log10)” value came to 0.394.

For “GGTCAACCTTGGGTTCTAACCTGTTGCCT (site GCTCAACCTAG)”, the “recombinant barcode read abundance (log10)” value is 0.172. For “GGTCAACCTTGGGTTCTAACCTGTTGCCT (site GGTCAACCTAG)” the value was 1.14; for “GGTCAACCTTGGGTTCTAACCTGTTGCCT (site GTTCAACCTAG)”, 0.486; for “GGTCAGTCTTGGGTTCTAACCTGTTGCGG (site GGTCAGTCTCC)”, 1.84. Regarding “GGTCAGTCTTGGGTTCTAACCTGTTGCGG (site TAGTTTACTTA)”, the “recombinant barcode read abundance (log10)” value was 0.0859.

As to “GGTCATGCTTGGGTTCTAACCTGTTGCCT (site GGTCATACTAG)”, the “recombinant barcode read abundance (log10)” value was 0.169. In the case of “GGTCATGCTTGGGTTCTAACCTGTTGCCT (site GGTCATCCTAG)” it was 0.131. Consider “GGTCATGCTTGGGTTCTAACCTGTTGCCT (site GGTCATGCTAG)”, for which the “recombinant barcode read abundance (log10)” value was 1.11. In the case of “GGTCATGCTTGGGTTCTAACCTGTTGCCT (site GGTCATTCTAG)” it was 0.0304; in that of “GGTCCACCTTGGGTTCTAACCTGTTGCCT (site AGTCCACCTAG)”, 0.386; in that of “GGTCCACCTTGGGTTCTAACCTGTTGCCT (site CGTCCACCTAG)”, 0.181. “GGTCCACCTTGGGTTCTAACCTGTTGCCT (site GGTCCACCTAG)”: the “recombinant barcode read abundance (log10)” value worked out at 1.07. In the case of “GGTCCACCTTGGGTTCTAACCTGTTGCCT (site TGTCCACCTAG)” it was 0.108; in that of “GGTCCCACTTGGGTTCTAACCTGTTGCCT (site GGGCTCACTAG)”, 0.0761; in that of “GGTCCCACTTGGGTTCTAACCTGTTGCCT (site GGTCCCACTAG)”, 0.943. In the case of “GGTCCGTCTTGGGTTCTAACCTGTTGCAT (site AGTCGGTCTAT)” it was 0.127.

Take “GGTCCGTCTTGGGTTCTAACCTGTTGCAT (site GGTCCGTCTAT)”: the “recombinant barcode read abundance (log10)” value stood at 1.16. For the sequence “GGTCCTACTTGGGTTCTAACCTGTTGCCT (site GATCCTACTAG)”, the “recombinant barcode read abundance (log10)” value came out at 0.241.

Consider “GGTCCTACTTGGGTTCTAACCTGTTGCCT (site GCTCCTACTAG)”, for which the “recombinant barcode read abundance (log10)” value was 0.0585. As for “GGTCCTACTTGGGTTCTAACCTGTTGCCT (site GGTCCTACTAG)”, the “recombinant barcode read abundance (log10)” value is 0.355. In the case of “GGTCCTACTTGGGTTCTAACCTGTTGCCT (site GTTCCTACTAG)” it was 0.187; in that of “GGTCGAACTTGGGTTCTAACCTGTTGCCT (site GGTCAAACTAG)”, 0.107. In the case of “GGTCGAACTTGGGTTCTAACCTGTTGCCT (site GGTCCAACTAG)” it was 0.127. For “GGTCGAACTTGGGTTCTAACCTGTTGCCT (site GGTCGAACTAG)” the value was 0.624; for “GGTCGAACTTGGGTTCTAACCTGTTGCCT (site GGTCTAACTAG)”, 0.0343; for “GGTCGCTCTTGGGTTCTAACCTGTTGCCT (site GGACGCTCTAG)”, 0.0961.
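Note: IS621 recombinase and bridge RNA in Escherichia coli cells.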
